Experimental data: US11344601B2, “Tumor microenvironment-related target TAK1 and application thereof in inhibition of tumor” (Shanghai Institutes for Biological Sciences, Chinese …, priority 2017, dated 2022)
Where “and” joins values, the source holds several entries; their conditions need not be identical. Identical values can stand only once. One block for each compound: values may come before it.

How the values were obtained:
[1] = system: prostate-derived stromal cell line PSC27 and epithelial cancer cell line PC3 xenograft tumors; assay: Preclinical chemotherapy trial, subcutaneous PC3/PSC27 tissue-recombinant tumors, terminal tumor volume; format: in vivo, ICR-SCID mice; details: for further decrease in terminal tumor volume: inhibitor combined with mitoxantrone (MIT) vs mitoxantrone alone (group 8 vs group 6); for decrease in terminal tumor volume: mitoxantrone alone vs no drug (group 6 vs group 5)
Protocol: All experimental mouse experiments were carried out in strict accordance with the relevant regulations of the Institutional animal care and use committee (IACUC) of the shanghai Institute of Life Sciences of the Chinese Academy of Sciences. ICR-SCID mice at an age of about 6 weeks (about 25 g in body weight) were used in this patent-related animal experiment. Stromal cells PSC27 and epithelial cells were mixed at a ratio of 1:4, with each implant containing 1.25×10^6 cells for tissue recombination. The transplant tumor was implanted into mice subcutaneously, and the animals were euthanized at the end of Week 8 after transplantation. The tumor volume was calculated according to the following formula: V=(π/6)×((l+w)/2)^3 (V, volume; l, length; w, width). Similarly, lung and breast cancer xenograft tumors were formed by tissue recombination with A549 (non-small cell lung cancer cell line) and W138 (lung fibroblast line), MDA-MB-231 (triple negative breast cancer cell line) and HBF1203 (breast fibroblast line), respectively.
In the preclinical chemotherapy trial, mice subcutaneously transplanted with tumors were fed standard experimental diet. After 2 weeks, the chemotherapeutics mitoxantrone (dose of 0.2 mg/kg) and/or SASP inhibitors (500 μl, dose of 10 mg/kg, RAD001, SB203580 and 5Z-7 were purchased from Tocris; LYTAK, purchased from Lilly Co ((Indianapolis, Ind.), 5 mg/kg) were administrated intraperitoneally. The timepoint was the first day of Week 3, 5, 7, and the whole course of treatment was composed of three cycles of administration, each cycle lasted for 2 weeks. After the course of treatment, mouse […] was collected for tumor measurement and histological analysis. Each mouse received cumulatively 0.6 mg mitoxantrone/kg body weight and 30 mg SASP inhibitor/kg body (15 mg/kg body weight for LYTAK1). Mice xenografted with lung cancer and breast cancer tumor received bleomycin (totally 0.3 mg/kg) and doxorubicin (totally 0.2 mg/kg), respectively. The timepoints and frequency were same as the administration of mitoxantrone. The chemotherapeutic trial was performed until the end of Week 8, and the mice were dissected immediately after death. The transplant tumors were collected and used for analysis in a pathological system.
In order to simulate clinical conditions as much as possible, the present inventor inoculated the subcutaneous site of immunodeficient mice with an admixture of prostate-derived stromal cell line PSC27 and epithelial cancer cell line PC3. The mice subsequently underwent a regimen of 8-week preclinical chemotherapy, which included three single- or double-drug treatments based on a series of pre-experimental data (FIGS. 64 and 65). In the absence of stromal cells, PC3 cells were still able to form tumors under screening pressure caused by chemotherapeutics, though their volumes were smaller than that generated in the case of concurrent inoculation of stromal cells and cancer cells. Such difference also objectively confirmed the tumor-promoting effect of the microenvironment (FIG. 66).

NF-κB complex = assay: NF-κB activation in bleomycin-treated stromal cells (nuclear translocation, luciferase reporter); format: cell-based, human; details: for NF-κB transcriptional activity (reporter vector): bleomycin plus inhibitor, luciferase reporter
Protocol: FIG. 22. The stromal cells pre-transduced with the NF-κB transcriptional luciferase reporter vector were treated with bleomycin and/or RAD001. The cells were collected on Day 7 and detected for the fluorescence signal intensity of the reporter vector.
FIG. 32. Detection of NF-kB transcriptional activity based on the reporter vector. Stromal cells were treated with bleomycin along with the PI3K small molecule inhibitor LY294002 (1 μM), Akt inhibitor MK-2206 (100 nM), mTOR inhibitor RAD001 (50 nM), p38 inhibitor SB203580 (10 μM) and TAK1 inhibitor 5Z-7 (500 nM), respectively, and cell lysates were used for determining luciferase activity.
The […] vector pBABE-puro-IκBα-mut (Super repressor) containing two phosphorylated mutant sites of IKK at S32A and S34A on the IκBα protein encoding sequence were used for transfection of lentivirus-packing cell line phoenix. Lentiviruses were subsequently used to infect PSC27 stromal cell line, whereas 1 μg/ml puromycin was used to screen positive clones. As another method, 5 μm of the small molecule inhibitor Bay11-7082 (purchased from Selleck) was used for NF-κB activity control. Stromal cells were subsequently exposed to several different forms of cytotoxicity, with the resulting phenotype recorded in time, and the relevant gene expression analyzed. The resulted conditioned culture medium produced from cells processed in this way was collected for various detection of epithelial cells.
Even so, is TAK1 activated indirectly by upstream DDR signaling associated with activation of a core transcription factor, NF-κB complex involved in the broad-spectrum expression of the SASP? The NF-κB complex was previously reported to be mediated by mono-ubiquitination of IκB kinase subunit γ (IKKγ) in cytoplasm. After isolating nucleus from cytoplasmic proteins using a kit, the inventor finds that TAK1 phosphorylation is associated with nuclear translocation of p50 and p65, the two main subunits of NF-κB complex (FIG. 4).

PSC27 cells = assay: DNA damage response foci, colony formation, cell cycle arrest and SA-β-Gal in PSC27 cells; format: cell-based, human
Protocol: Experimental Treatment In Vitro • 100 nM docetaxel (DTX), 100 nM paclitaxel (PTX), 200 nM vincristine (VCR), 50 μg/ml bleomycin (BLEO), 1 μM mitoxantrone (MIT), or 10 Gy ^137CS ionizating radiation (γ-radiation at 743 rad/min, RAD) was added to the culture medium when PSC27 cells grown to 80% (PSC27-Pre) to produce cell damage. After drug treatment for 6 hours, the cells were simply washed by PBS for 3 times and kept in the culture medium for 7 to 10 days, followed by subsequent experiments. […] Immunofluorescence and Histochemical Analysis • Mouse monoclonal antibody anti-phospho-Histone H2A.X (Ser139) (clone JBW301, Millipore) or mouse monoclonal antibody anti-Phosphor-53BP1 (Cat #sc-135748, Santa Cruz), and secondary antibody Alexa Fluor® 488 (or 594)-conjugated F(ab′)2 were added sequentially to slides on which cells were fixed. Nuclei were counterstained with 2 μg/ml of 4′,6-diamidino-2-phenylindole (DAPI). The most representative image was selected from the 3 observation fields for data analysis and result presentation. FV1000 laser scanning confocal microscopy (Olympus) was used to obtain cellular confocal fluorescence images to determine the extent of DNA damage. • Antibody anti-TAK1 used for histological IHC staining in clinical prostate, non-small cell lung cancer patients and breast cancer patients, was purchased from Proteintech, idib.

mTOR = target: T1, mTOR (Homo sapiens, UniProt P42345+P62942); assay: Western blot of Akt/mTOR pathway activation in bleomycin-treated stromal cells; format: cell-based
T1 construct: endogenous in cells; host or cells: PSC27 human prostate stromal cells
Protocol: (§1) The nitrocellulose filter membrane was blocked at room temperature for 1 h in the blocking solution (TBST containing 5% skim milk powder (0.1% Tween-20 in TBS)), incubated overnight at 4° C. in a primary antibody solution, rinsed at TBST room temperature for 3 times, each for 2 min. The corresponding secondary antibody conjugated with HRP prepared with the blocking solution was added, the filter membrane was incubated at room temperature for 0.5 h. The filter membrane was rinsed with PBST at room temperature for 3 times, each for 2 min.

IL-8 = IL-8 protein expression of damaged stromal cells (Western blot, ELISA); format: cell-based, human; details: ELISA of extracellular fluid, bleomycin plus inhibitor
Protocol: FIG. 15. The stromal cells were collected on Day 7 after bleomycin and/or 5Z-7 treatment. The lysates were analyzed by Western blot for their phosphorylation levels of ATM and TAK1, and activation of TAK1 downstream substrate JN K and p38. IL-8, a chemokine was used as a marker secreted factor of SASP, whose expression level was simultaneously analyzed. FIG. 33. The extracellular fluid released by each group of cells were tested by ELISA to determine the protein expression level of the secreted factor IL-8.

TAK1 = target: T2, TAK1 (Homo sapiens, UniProt O43318); assay: IP, in vitro kinase assay and Western blot of TAK1 activation in damaged PSC27 stromal cells; format: cell-based; details: PSC27 cells treated with IL-1α (20 ng/ml)
T2 construct: PSC27 cells were treated with bleomycin and cell lysates were subject to anti-p-TAK1-mediated IP precipitation; endogenous in cells; host or cells: PSC27 human prostate stromal cells
T2 sequence (O43318 1-606): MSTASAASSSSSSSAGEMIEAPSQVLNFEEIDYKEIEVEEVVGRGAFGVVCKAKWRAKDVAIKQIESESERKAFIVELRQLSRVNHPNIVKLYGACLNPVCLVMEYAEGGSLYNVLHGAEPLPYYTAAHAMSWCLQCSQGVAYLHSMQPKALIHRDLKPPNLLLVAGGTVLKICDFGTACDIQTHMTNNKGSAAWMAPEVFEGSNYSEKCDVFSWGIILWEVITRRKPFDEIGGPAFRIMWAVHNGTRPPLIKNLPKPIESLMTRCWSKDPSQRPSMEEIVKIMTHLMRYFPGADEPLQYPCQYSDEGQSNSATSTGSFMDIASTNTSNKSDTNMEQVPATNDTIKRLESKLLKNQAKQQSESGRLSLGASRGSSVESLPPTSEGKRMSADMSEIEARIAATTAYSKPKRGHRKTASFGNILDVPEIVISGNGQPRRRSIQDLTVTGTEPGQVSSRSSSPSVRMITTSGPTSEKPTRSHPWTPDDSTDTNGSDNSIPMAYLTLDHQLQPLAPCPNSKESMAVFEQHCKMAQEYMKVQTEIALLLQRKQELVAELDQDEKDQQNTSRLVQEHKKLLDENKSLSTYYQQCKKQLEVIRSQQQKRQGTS
Protocol: In the presence of the TAK1 inhibitor 5Z-7, PSC27 cells were treated with bleomycin and cell lysates were subject to anti-p-TAK1-mediated IP precipitation. IP products were analyzed by in vitro kinase assay, and MKK6 was used as TAK1 substrate. p38 phosphorylation was analyzed by Western blot with GAPDH as the loading control. In addition, IL-1α (20 ng/ml) was used to treat stromal cells and was further analyzed by similar IP and in vitro kinase assay.

p38MAPK, JNK, ATM = assay: Western blot of JNK, p38MAPK and ATM phosphorylation in damaged stromal cells; format: cell-based, human; details: bleomycin and/or SB203580
Protocol: as §1

- activation of mTOR substrates S6K1 and 4E-BP1 (mTOR; bleomycin and/or RAD001, Day 7): inhibition of S6K1 and 4E-BP1 activation
Compound: CO[C@H]1C[C@@H]2CC[C@@H](C)[C@@](O)(O2)C(=O)C(=O)N2CCCC[C@H]2C(=O)O[C@H]([C@H](C)C[C@@H]2CC[C@@H](OCCO)[C@H](OC)C2)CC(=O)[C@H](C)/C=C(\C)[C@@H](O)[C@@H](OC)C(=O)[C@H](C)C[C@H](C)/C=C/C=C/C=C/1C [RAD001]
- further decrease in terminal tumor volume ([1]; end of Week 8): 44%
- phosphorylation of IKKβ, degradation of IRAK1 and IkBα, nuclear translocation of p65 and p50 (NF-κB complex; after DNA damage, RAD001 added to the medium): largely abolished
- NF-κB transcriptional activity (reporter vector) (NF-κB complex): significantly attenuated
- cell cycle arrest and SA-β-Gal activity (PSC27 cells; bleomycin-damaged stromal cells in the presence of RAD001): remained unaffected
- single-cell level of DDR foci (PSC27 cells; bleomycin-treated cells, presence or absence of inhibitor): remained unchanged

- activity of mTOR (mTOR; simultaneous treatment of bleomycin and MK-2206): significantly downregulated
Compound: NC1(c2ccc(-c3nc4ccn5c(=O)[nH]nc5c4cc3-c3ccccc3)cc2)CCC1 [MK-2206]
- NF-κB transcriptional activity (reporter vector) (NF-κB complex): significantly reduced
- chemokine IL-8 protein levels induced by DNA damage (IL-8): significantly reduced

Compound: IL-1α: cytokine, known upstream regulatory factor for TAK1
- TAK1/MKK6 interaction (TAK1): significantly enhanced
- p38 kinase activity (TAK1): significantly increased

Compound: C[S+]([O-])c1ccc(-c2nc(-c3ccncc3)c(-c3ccc(F)cc3)[nH]2)cc1 (centres unmarked) [SB203580]
- further decrease in terminal tumor volume ([1]; end of Week 8): 46%
- NF-κB transcriptional activity (reporter vector) (NF-κB complex): significantly reduced
- chemokine IL-8 protein levels induced by DNA damage (IL-8): significantly reduced
- phosphorylation level of p38 (p38MAPK, JNK, ATM): significantly reduce

Compound: O=C1c2c(O)ccc(O)c2C(=O)c2c(NCCNCCO)ccc(NCCNCCO)c21 [mitoxantrone]
- decrease in terminal tumor volume ([1]; end of Week 8): 37%
- decrease in terminal tumor volume ([1]; end of Week 8, listed as MIT): 37% and 36%
